These are literature values, as cited in publication PMC12347832, “Multi-Component Synthesis of New Fluorinated-Pyrrolo[3,4-b]pyridin-5-ones Containing the 4-Amino-7-chloroquinoline Moiety and In Vitro–In Silico Studies Against Human SARS-CoV-2” (International Journal of Molecular Sciences, 2025).

This data set concerns SARS-CoV-2. As to conditions: cited from earlier work.

As a reminder, the IC50 is the midpoint of a concentration-inhibition curve. On to `CCN(CC)CCCC(C)Nc1ccnc2cc(Cl)ccc12` (stereo not shown) [Chloroquine], for which the IC50 was 1130 nM.
